Tested on: patients with coronary artery disease undergoing PCI
Assay: Randomized, double-blind, placebo-controlled trial of intracoronary propranolol before percutaneous coronary intervention
Assay type: in vivo
Method: Study population: This study was a randomized, double-blind, placebo-controlled trial. Patients with coronary artery disease undergoing PCI were considered for inclusion. Patients on chronic beta blockers were included. Exclusion criteria included myocardial infarction (“MI”) within 24 h or recent MI with elevation of CK or CKMB at time of randomization (a normal CK and CKMB and elevated troponin T allowed inclusion); cardiogenic shock; systolic blood pressure<100 mm Hg; heart rate<50/min; NYHA class III or IV heart failure; severe left ventricular dysfunction (ejection fraction<30%); severe renal insufficiency (creatinine>3.0 mg/dl); allergy to propranolol; or second planned intervention within 30 days. Patients with chronic obstructive pulmonary disease (“COPD”) were not specifically excluded.
Study protocol: Before initiation of PCI, all patients were pretreated with aspirin and received weight-adjusted heparin, with a target activated clotting time of >300 seconds in the absence of a glycoprotein IIb/IIIa (“GP IIb/IIIa”) inhibitor and 200-300 seconds with a GP IIb/IIIa inhibitor, which was allowed but not mandated.
Patients were randomized in a 1:1 ratio to receive either placebo or propranolol. The randomization allocation code was generated using complete block design. Randomization was performed after coronary angiography confirmed the need for PCI. In patients with a total occlusion, the lesion was crossed with a guide wire before randomization.
Study drug kits were packaged by hospital pharmacy to be indistinguishable from each other with a concentration of 1 mg/ml; the identity of the injectate (i.e., propranolol or placebo) was not known to the investigators or to the patients. […] The study drug was thus delivered directly into the myocardial region supplied by the stenotic coronary artery undergoing PCI. Balloon inflation was performed after the IC injection of propranolol or placebo. Blood samples were taken prior to PCI, immediately after PCI, and every 8 h for 24 h to assay CK and CKMB. Blood samples were taken at 16 h for troponin T analysis. Additional blood levels were obtained when any patient experienced possible ischemic symptoms. The 30-day contact was made by clinic visit or telephone interview.
Study endpoints: The primary endpoint was the incidence of post-procedural elevation of CKMB above the upper limit of normal (“ULN”). The “threshold” for the development of an excess in adverse events relative to the level of CKMB appears to be a continuous function beginning with any elevation of CKMB or troponin T with the frequency of long-term adverse events, particular death, increasing with the level of enzyme rise (Simoons, which is hereby incorporated by reference). Secondary endpoints included (1) incidence of post-procedure total CK elevation, (2) incidence of troponin T elevation (in those patients with normal baseline values), (3) median peak values of CK, CKMB, and troponin T, (4) rescue therapy with GP IIb/IIIa inhibitors, and (5) combination of death from any cause, myocardial necrosis, recurrent MI within 30 days, or severe myocardial ischemia requiring urgent coronary-artery bypass surgery or target lesion revascularisation (“TLR”) within 30 days of intervention (“MACE”).
Urgent target lesion revascularisation included any coronary artery bypass graft surgery or a second PCI on the original target lesion performed for recurrent myocardial ischemia. Successful PCI was defined as post-procedure residual stenosis at the target lesion<30% of reference vessel diameter without major adverse outcome (death, Q wave MI, emergent CABG). Major bleeding was defined as bleeding requiring transfusion, surgery, prolongation of hospital stay, or >8% drop in hematocrit after PCI. Rescue GP IIb/IIIa use was defined as drug given after the guide wire passage during PCI.

[1] = patients with mechanical complications, n = 17
[2] = patients with no mechanical complication, n = 58

With `CC(C)NCC(O)COc1cccc2ccccc12` (stereo not shown) [Propranolol, propranolol] the “Change in heart rate or blood pressure after IC injection” value (15 μg/kg intracoronary) was “no change”, the “Incidence of elevation of CKMB (>5 ng/ml) after PCI” value (0.015 mg/kg) was 17% and the “Incidence of elevation of Troponin T (>0.10 ng/ml) after PCI” value (0.015 mg/kg, 16 h) was 13%. The Death (30 days after PCI, n = 75) was 0%, the “Recurrent MI” value (30 days after PCI, n = 75) was 1% and the “Urgent/emergent TLR” value (30 days after PCI, n = 75) was 0%. The Significant bleeding (after PCI) was 3%, the “Combined 30d MACE” value (death, myocardial necrosis, recurrent MI, urgent TLR within 30 days, n = 75) was 18% and the “"Rescue" GP IIb/IIIa inhibitors use required” value (drug given after guide wire passage during PCI) was 11%. For the same compound, the “Adverse systemic effects after IC injection” value (including respiratory difficulties in 5 patients with history of COPD or asthma) was “no adverse systemic effects”, the “Heart rate, post drug” value (largest change after drug administration, baseline 67 ± 11) was 66 ± 11 beats/min and the “Systolic BP, post drug” value (largest change after drug administration, baseline 139 ± 25) was 137 ± 23 mmHg. The “CKMB elevation ≧3 times upper limit of normal” value (number of patients out of 75) was 7 patients, the “Elevation of CK (% of patients)” value [1] was 18% and the “Elevation of CKMB (% of patients)” value [1] was 41%. The “Elevation of troponin T (% of patients)” value [1] was 35%, the “Elevation of CK (% of patients)” value [2] was 0% and the “Elevation of CKMB (% of patients)” value [2] was 10%. For the same compound, the “Elevation of troponin T (% of patients)” value [2] was 5%, the “Median value of CKMB” value (post PCI, all patients) was 2.1 and the “Median value of total CK” value (post PCI, all patients) was 67. The “Median value of troponin T” value (post PCI, all patients) was 0.03, the “Favorable effect on preventing myocardial necrosis, subgroup analysis” value (relative risk by subgroups, FIG. 3) was “broadly applicable” and the “Recurrent MI (number of patients)” value (within 30 days) was 1 patients. The “Urgent TLR required (number of patients)” value (within 30 days) was 0 patients.

Reference: US6756408B2, “Methods and materials for protecting against myocardial cell damage related to coronary intervention by regional beta blocker therapy” (Board of Regents, The University of Texas System, priority 2001, dated 2004)
